Data reported in PubChem BioAssay (NCI).
Several values for one entry are separate records, joined by “and”; a condition that tells them apart may be missing. Equal values may be shown once.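 96-well plates; 48 h exposure; 5 concentrations. Endpoints by linear interpolation between flanking doses. Not reached: highest tested concentration assigned. Here, GI50 denotes the concentration required for 50% inhibition of growth. TGI marks complete inhibition of growth.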

Experiments:
Assay in all cases: NCI anticancer screen, dose series, 48 h
RPMI-8226 leukemia = test system: RPMI-8226 leukemia
NCI-H23 lung = test system: NCI-H23 lung
HCC-2998 colon = test system: HCC-2998 colon
MALME-3M melanoma = test system: MALME-3M melanoma
M14 melanoma = test system: M14 melanoma
HS 578T breast = test system: HS 578T breast
HL-60(TB) leukemia = test system: HL-60(TB) leukemia
SNB-75 CNS = test system: SNB-75 CNS
KM12 colon = test system: KM12 colon
SF-295 CNS = test system: SF-295 CNS

SMILES | GI50 (RPMI-8226 leukemia) | TGI (RPMI-8226 leukemia) | GI50 (NCI-H23 lung) | TGI (NCI-H23 lung) | GI50 (HCC-2998 colon) | TGI (HCC-2998 colon) [µM] | GI50 (MALME-3M melanoma) [µM] | TGI (MALME-3M melanoma) | GI50 (M14 melanoma) | TGI (M14 melanoma) | GI50 (HS 578T breast) | TGI (HS 578T breast) | GI50 (HL-60(TB) leukemia) | TGI (HL-60(TB) leukemia) | GI50 (SNB-75 CNS) | TGI (SNB-75 CNS) | GI50 (KM12 colon) [µM] | TGI (KM12 colon) [µM] | GI50 (SF-295 CNS) | TGI (SF-295 CNS)
CCN(CC)c1ccc(/C=N/NC(=O)c2ccc(Nc3ccnc(C(F)(F)F)c3)cc2)c(O)c1 | 0.12 µM | 0.555 µM | 0.428 µM | 9.8 µM | 0.25 µM | 1.4 | 0.482 | 5.7 µM | 0.25 µM | 1.42 µM | 0.321 µM | 3.6 µM | 0.258 µM | 0.791 µM | 0.152 µM | 3.41 µM | 0.316 | 4.1 | 0.122 µM | 0.927 µM
COC(=O)C1=CN(CC2=CC(=O)C(C)=CC2=O)C=C(C(=O)OC)C1c1cccc(OC)c1OC | 3.09 µM | 10.9 µM | 22.4 µM | > 55.1 µM | 14.2 µM | 27.2 | 13.5 | 34.3 µM | 15.3 µM | 29.4 µM | 27.1 µM | > 87.3 µM | 5.07 µM | 14.1 µM | > 100 µM | > 100 µM | 18 | 57.2 | 6.88 µM | > 41.8 µM
CCOC(=O)c1cc2c(cc1Cl)SC(N(c1ccc(F)cc1)S(=O)(=O)c1ccc(OC)cc1)=NS2(=O)=O | 15 µM | 51.5 µM | 18.5 µM | 44 µM | 18.2 µM | 35.2 | 14.9 | 32.8 µM | 19.5 µM | 49.1 µM | 20.7 µM | 51.3 µM | 18.5 µM | 42.4 µM | 18.3 µM | 47.4 µM | 22.8 | 63.9 | 25.7 µM | 74.8 µM
O=C1C(NCCO)=C(N2CC2)C(=O)C(NCCO)=C1N1CC1 | – | > 84.8 µM | – | 74.6 µM | – | > 100 | – | > 100 µM | – | > 100 µM | – | > 100 µM | – | 57.6 µM | – | > 100 µM | – | > 100 | – | 64.6 µM
O=C(Nc1ccccc1Cl)c1cnc2ccc(C3CCNCC3)cn12 | > 69 µM | > 100 µM | 74.5 µM | > 100 µM | > 100 µM | > 100 | 22.1 | > 94.5 µM | 15.2 µM | 33.3 µM | 0.292 µM | 2.92 µM | > 67.9 µM | > 100 µM | 0.15 µM | 5.02 µM | > 85.4 | > 100 | 24.8 µM | > 83.9 µM
FC(F)(F)c1ccc2c(c1)N(CCCN1CCN(C3CC3)CC1)c1ccccc1S2 | 6.18 µM | 25.8 µM | 7.42 µM | 23.1 µM | 13.6 µM | 27.5 | 14 | 31.7 µM | 15.1 µM | 30.7 µM | 10.3 µM | 27.1 µM | 6.03 µM | 23.3 µM | 13.5 µM | 28.1 µM | 7.68 | 21 | 3.74 µM | 18.4 µM
Cc1cccc2c3c(sc12)C(c1ccc(Cl)cc1)C(C#N)=C(/N=C/c1ccc(Cl)cc1)O3 (stereo not drawn) | 0.408 µM | > 28.3 µM | 0.446 µM | 14.2 µM | 1.04 µM | 11.2 | 0.595 | > 100 µM | 0.308 µM | > 52.6 µM | 0.258 µM | 2.64 µM | 0.325 µM | 2.54 µM | 0.186 µM | 0.748 µM | 0.448 | > 100 | 0.267 µM | 2.37 µM
COc1ccc(C2=NNC(c3ccc(-c4ccc(OC)cc4[N+](=O)[O-])o3)C2)cc1 (stereo not drawn) | 36.8 µM | > 100 µM | 33 µM | > 100 µM | 36.9 µM | > 100 | 0.412 | 69.5 µM | 71.3 µM | > 100 µM | 22.1 µM | 57.5 µM | 71.7 µM | > 100 µM | 21.2 µM | 84.3 µM | 27.4 | > 100 | 29.5 µM | > 100 µM
O=C(O)CC(Cc1ccc2c(c1)OCO2)C(=O)O (stereo not drawn) | – | > 100 µM | – | > 100 µM | – | > 100 | – | > 100 µM | – | > 100 µM | – | > 100 µM | – | > 100 µM | – | > 100 µM | – | > 100 | – | > 100 µM
CC(C)(C)Cn1c(N)nc2ccc(-c3[nH]c(C(C)(C)C)nc3-c3ccc(F)cc3)nc21 | 3.29 µM | 28.4 µM | 13.9 µM | 31 µM | 11.1 µM | 24.1 | 4.08 | 18.1 µM | 11.4 µM | 24.7 µM | 13.7 µM | 73 µM | 19.9 µM | 81.4 µM | 2.3 µM | 16.8 µM | 10.3 | 23.9 | 7.82 µM | 22 µM
COc1cc(N2CCC(N(C)C)CC2)ccc1Nc1ncc(Cl)c(Nc2ccccc2P(C)(C)=O)n1 | 3.85 µM and 2.05 µM | 21.7 µM and > 7.1 µM | 1.33 µM and 0.338 µM | 17.1 µM and > 4.62 µM | 3.6 µM and 0.446 µM | > 52.2 | – | 31.7 µM and > 7.77 µM | 2.23 µM and 0.503 µM | 15.3 µM and > 4.88 µM | 1.83 µM and 0.496 µM | 8.27 µM and 2.21 µM | 1.25 µM and 0.168 µM | 11.6 µM and > 5.33 µM | 1.07 µM and 0.228 µM | 2.69 µM and 0.82 µM | – | > 30 | 1.81 µM and 0.409 µM | 15.8 µM and > 5.44 µM
O=[N+]([O-])c1cccc(-c2nc3sccn3c2-c2ccnc(NCCCNS(=O)(=O)c3ccc(F)cc3)n2)c1 | 0.677 µM | 2.94 µM | 2.42 µM | 9.16 µM | 7.29 µM | > 100 | 2 | 6.76 µM | 2.72 µM | > 100 µM | 3.25 µM | > 100 µM | 2.55 µM | 6.69 µM | 1.58 µM | 6.07 µM | 2.59 | 7.91 | 2.62 µM | 8.15 µM
CN(C)c1cccc2[nH]c(-c3[nH]ncc3Nc3ccnc(N)n3)nc12 | 0.281 µM | 0.885 µM | 0.0232 µM | 0.217 µM | 0.0276 µM | 0.488 | 0.0359 | 0.114 µM | 0.0222 µM | 0.0812 µM | < 0.0156 µM | 0.261 µM | < 0.0141 µM | 0.0666 µM | < 0.0108 µM | 0.0302 µM | 0.024 | 0.283 | 0.0172 µM | 0.0628 µM
